Test results: US20230141569A1, “FLUORESCENT DYE, AND PREPARATION METHOD AND USES THEREOF” (FLUORESCENCE DIAGNOSIS (SHANGHAI) BIOTECH COMPANY LTD., priority 2020, published 2023)

Tests used:
RNA aptamer [1] = experiment: Labeling intracellular RNA aptamer in cells (Test Example 4, FIG. 20A/20B); format: cell-based; conditions: for fluorescence of cells expressing the RNA aptamer: FIG. 20A; for fluorescence of cells not expressing the RNA aptamer: FIG. 20B
Description: FIGS. 20A and 20B are the application of molecular rotors IV-1, IV-2, IV-3, IV-4, IV-5, IV-6, IV-17, IV-18, IV-19, IV-20, IV-21, IV-22 in labeling intracellular RNA aptamer, wherein FIG. 20A are cells expressing the target RNA aptamer, and FIG. 20B are cells not expressing the target RNA aptamer;

RNA aptamer [2] = experiment: Optical properties after binding to RNA aptamer (Test Example 4); format: biochemical; conditions: for Em/nm / Ex/nm / ε / QY (−): after binding to RNA aptamer; for QY (−): relative method with Rhodamine 6G as the standard; for compound fluorescence after binding to RNA aptamer: excited at a suitable wavelength
[3] = Viscosity response: fluorescence in glycerin vs methanol (Test Example 1); format: physicochemical; conditions: final concentration 1×10^−5 M; for Glycerin/Methanol Fluorescence Intensity Ratio: excited at maximum excitation wavelength of each dye; for Maximum Excitation Wavelength (nm): glycerin and methanol
[4] = Fluorescence emission at different viscosity conditions, diethanol-glycerol mixed solution (Test Example 2); format: physicochemical; conditions: 1×10^−5 M, excited at 480 nm
mRNA of ACTB = experiment: Flow detection of mRNA labeling in 293T/17 cells (Test Example 5); format: cell-based; conditions: 0.2 μM in PBS, 5 minutes incubation; for background fluorescence in flow detection: 293T/17 control cells
Description: FIGS. 21A and 21B are a flow detection diagram for molecular rotors IV-21 and IV-41 for labeling mRNA.

Structure (SMILES) | fluorescence of cells expressing the RNA aptamer (RNA aptamer [1]) | fluorescence of cells not expressing the RNA aptamer (RNA aptamer [1]) | Em/nm (RNA aptamer [2]) [nm] | Ex/nm (RNA aptamer [2]) [nm] | ε (RNA aptamer [2]) [M⁻¹ cm⁻¹] | QY (−) (RNA aptamer [2]) | compound fluorescence after binding to RNA aptamer (RNA aptamer [2]) | Glycerin/Methanol Fluorescence Intensity Ratio [3] | Maximum Excitation Wavelength (nm) [3] [nm] | fluorescence intensity at different viscosity conditions [4] | labeling of mRNA of ACTB in cell lines expressing target RNA (mRNA of ACTB; 293T/17, flow detection) | background fluorescence in flow detection (mRNA of ACTB)
CN1C(=O)/C(=C/c2ccc(N(C)CCO)cc2)N=C1/C=C/c1ccc(O)cc1 [IV-20] | bright fluorescence | no fluorescence | 577 | 512 | 25500 | 0.36 | noticeably activated | 781 | 577 | gradually increasing fluorescence intensity |  | 
CN1C(=O)/C(=C/c2ccc(N(C)CCO)cc2)N=C1/C=C/c1ccc(C#N)cc1 [IV-21] | bright fluorescence | no fluorescence | 624 | 534 | 26222 | 0.28 | noticeably activated | 655 | 624 | gradually increasing fluorescence intensity | could specifically label mRNA of ACTB | no obvious background fluorescence
CN1C(=O)/C(=C/c2ccc(N(C)CCO)cc2)N=C1/C=C/c1ccc(F)cc1 [IV-22] | bright fluorescence | no fluorescence | 580 | 522 | 32000 | 0.46 | noticeably activated | 689 | 580 | gradually increasing fluorescence intensity |  | 
CN1C(=O)/C(=C/c2ccc(N(C)CCO)cc2)N=C1/C=C/c1ccccc1 [IV-41, reference compound] |  |  |  |  |  |  |  |  |  |  |  | higher than that of IV-21
